These results are taken from PubChem BioAssay AID493191 (Broad Institute, 2011).

This assay has as its system MALME3 melanoma viability, CellTiter-Glo luminescence, 24 h. Briefly: MALME3 melanoma cell viability loss, dose response, orthogonal assay for MITF inhibitor project, CellTiter-Glo, cherry-picked (AID 493191). On the technique in general: In ATP-based viability assays light output follows the ATP content of the culture.
For the compound `C=C1C(=O)O[C@@H]2[C@H]1[C@@H](OC(=O)/C(C)=C/C)C/C(C)=C\C(=O)/C=C(\C)[C@@H]2O`, the AC50 was 6.41 µM.

For the compound `COc1ccc(C(CCNC(C)c2ccccc2)c2ccc(F)cc2)cc1` (stereo unspecified), the AC50 was 16.7 µM.

As for `COCCN(CC(=O)NC1CCCCC1)C(=O)/C=C/C(=O)c1ccc(OC)cc1O`, the AC50 is 6.68 µM.

Regarding `COc1cc(NC(=O)c2ccc([N+](=O)[O-])o2)ccc1NC(=O)c1cccs1`, the AC50 was 13.1 µM.

Consider `CC1CCC(C(C)C)C(OC(=O)C[n+]2cc(-c3ccc(Cl)cc3)n3c2CCCCC3)C1` (stereo unspecified), for which the AC50 was 18 µM.

Consider `O=C(Nc1ccc(S(=O)(=O)NC2=NCCCCC2)cc1)c1ccc([N+](=O)[O-])s1`, for which the AC50 is 18.4 µM.

As for `Cn1c(SC2=CS(=O)(=O)c3ccccc32)nc2ccccc21`, the half-maximal activity concentration (AC50) was 19.7 µM.

Turning to `Cc1cc(Br)ccc1NC(=O)CNC(=O)Cn1ncc(Cl)c(Cl)c1=O`, the AC50 was 5.54 µM.

As for `O=[N+]([O-])c1ccc(/C=N/N=C/c2ccc([N+](=O)[O-])o2)o1`, the AC50 is 12.9 µM.

On to `CC(C)(C)C(=O)/C(=C/c1ccncc1)n1cncn1`, for which the AC50 is 21.9 µM.

Consider `O=C(CNC(=O)c1cccc(F)c1)N/N=C/c1ccc([N+](=O)[O-])s1`, for which the AC50 is 25.1 µM.

Consider `N=c1n(Cc2ccc(Cl)cc2)c2ccccc2n1CC(O)COc1ccccc1` (stereo unspecified), for which the AC50 was 14.8 µM.

In the case of `CCC(C)(C)c1ccc(OCCCC[n+]2ccccc2)c(C(C)(C)CC)c1`, the AC50 is 10.8 µM.

On to `COc1ccccc1OCC(=O)N/N=C/C=C/c1ccc([N+](=O)[O-])o1`, for which the AC50 is 20.6 µM.

For the compound `CCN1CCN(C2=C(NS(=O)(=O)c3ccc(Br)cc3)C(=O)c3ccccc3C2=O)CC1`, the AC50 was 20.1 µM.

As for `CCCNC(=O)COC(=O)c1ccccc1C(=O)c1ccc(Cl)c([N+](=O)[O-])c1`, the AC50 is 16.3 µM.

For the compound `Cc1ccccc1C(=O)N/N=C/c1ccc([N+](=O)[O-])s1`, the AC50 is 30.9 µM.

As to `COc1ccc(Oc2cc(NC(=O)c3nn(C)cc3[N+](=O)[O-])cc([N+](=O)[O-])c2)cc1`, the AC50 was 17.7 µM.

On to `O=C(Cn1ncc(Cl)c(Cl)c1=O)Nc1ccc2c(c1)OCO2`, for which the half-maximal activity concentration (AC50) was 25.1 µM.

Consider `Cc1ccc(NC(=O)c2cc(N3C(=O)C=CC3=O)ccc2N2CCOCC2)cc1Cl`, for which the half-maximal activity concentration (AC50) was 23.5 µM.

With `Cn1c(SCC(=O)N/N=C/c2ccc([N+](=O)[O-])s2)nnc1-c1ccccc1`, the AC50 was 14.7 µM.

For the compound `Cc1cc(C)c2c(N)c3cccc(C)c3nc2n1`, the AC50 was 27.9 µM.

With `Cc1ccc2sc(N(CCCN(C)C)C(=O)c3ccc(S(=O)(=O)N(C)C4CCCCC4)cc3)nc2c1C`, the AC50 is 18.1 µM.

On to `COC1=C(Nc2ccc(O)cc2)C(=O)c2ccccc2C1=O`, for which the AC50 was 14.3 µM.

Regarding `Cc1cc(C)c[n+](C2=C([O-])c3ccccc3C(=O)/C2=N\S(=O)(=O)c2cccs2)c1`, the AC50 was 9.5 µM.

As for `Cc1ccc(NC(=O)CN(C)C(=O)Cn2ncc(Cl)c(Cl)c2=O)cc1`, the concentration at half-maximal activity (AC50) is 8.81 µM.

Consider `CCCCN1C=CC(=C2C(=O)c3ccccc3C2=O)C=C1`, for which the AC50 is 27.3 µM.

With `Cc1ccc2nc(C)cc(Nc3ccc([N+](=O)[O-])cc3)c2c1`, the AC50 is 31.5 µM.

Turning to `CCCCN(C)CC(O)Cn1cc(/C=C/C(=O)c2cccs2)c2ccccc21` (stereo unspecified), the AC50 is 18.6 µM.

Take `CCOC(=O)CSC1=NC(=O)/C(=C\c2ccc(Cl)cc2)S1`: the AC50 is 16.2 µM.

Take `N=c1n(CC(=O)c2ccc(Br)s2)c2ccccc2n1Cc1ccccc1`: the AC50 is 24.7 µM.

`O=C(N/N=C/c1ccc([N+](=O)[O-])o1)c1ccc(O)cc1`: the concentration at half-maximal activity (AC50) was 10.9 µM.

Regarding `Cn1nnnc1Sc1ncnc2scc(-c3ccc(C#N)cc3)c12`, the AC50 is 28.5 µM.

Regarding `CCOc1ccc(-c2ccc(SC)nn2)cc1`, the AC50 is 26.5 µM.

For the compound `COc1ccc2nc(N3CCN(C(=O)c4ccc([N+](=O)[O-])o4)CC3)sc2c1`, the AC50 was 21.7 µM.

With `C=CCn1c(C)cc(C2=NNC(=NCC)SC2)c1C`, the AC50 was 17.6 µM.

As for `CC1CCCC(NCC(O)COC(c2ccc(F)cc2)c2ccc(F)cc2)C1C` (stereo unspecified), the AC50 is 20.5 µM.

For `Cc1cc(-n2c(SCC(=O)NCCC3=CCCCC3)nc3n[nH]c(C)c3c2=N)ccc1Cl`, the AC50 was 28.6 µM.

`O=C1NC2c3c(I)sc(I)c3C(=O)C2O1` (stereo unspecified): the AC50 was 16.6 µM.

As to `Cc1ccc(-c2nnc(SCC(=O)Nc3ccccc3F)o2)cc1`, the AC50 is 19.7 µM.

In the case of `COc1ccc(C(=O)/C=C/C(=O)N(CC(=O)NC2CCCCC2)Cc2ccccc2OC)c(O)c1`, the AC50 was 4.63 µM.

In the case of `CCOC(=O)c1c(C)oc2c1C(=O)c1ccccc1C2=O`, the AC50 was 7.25 µM.

For `O=C(Nc1ccc(N2CCN(C(=O)c3ccccc3)CC2)cc1)c1ccc([N+](=O)[O-])o1`, the AC50 was 9.02 µM.

`CCc1ccc(NC2=CC(=O)C(=O)c3ccccc32)cc1`: the AC50 is 6.91 µM.

As to `COc1ccccc1-c1cc(C(F)(F)F)nc(S(C)(=O)=O)n1`, the AC50 is 19.6 µM.

Take `O=C(NCC1CCCCC1)C1(CC2CC(c3cccc(Br)c3)=NO2)CCNCC1` (stereo unspecified): the concentration at half-maximal activity (AC50) is 24.4 µM.

Turning to `CN(C)CCCN(C(=O)CCc1ccccc1)c1nc2ccc(Br)cc2s1`, the AC50 is 19.2 µM.

Take `CN1CCN(C2=C(NS(=O)(=O)c3ccccc3)C(=O)c3ccccc3C2=O)CC1`: the concentration at half-maximal activity (AC50) is 11.2 µM.

For the compound `Cc1nc2ccccn2c1C(=O)N/N=C/c1ccc([N+](=O)[O-])o1`, the AC50 was 34 µM.

With `O=C(N/N=C/c1ccc([N+](=O)[O-])s1)c1cccc(Br)c1`, the AC50 was 29.9 µM.

Take `Cc1[nH]nc2nc(SCC(=O)NCCC3=CCCCC3)n(-c3ccc(Br)cc3)c(=N)c12`: the half-maximal activity concentration (AC50) was 20.5 µM.

Consider `OC(CNCC(c1ccc(Cl)cc1Cl)c1c[nH]c2ccccc12)c1ccccc1` (stereo unspecified), for which the AC50 is 19.1 µM.

As to `Cc1ccc(Oc2c(C(N)=O)cc([N+](=O)[O-])cc2[N+](=O)[O-])cc1`, the AC50 was 25.9 µM.

`Cc1ccc(-n2nnnc2CNC(=O)c2ccc([N+](=O)[O-])o2)cc1C`: the AC50 is 21.5 µM.

`CC(C)(C)c1ccc(OCCCNCc2ccccc2)cc1`: the AC50 was 27.4 µM.

As for `O=C(N/N=C\c1ccc([N+](=O)[O-])s1)c1cncc(Br)c1`, the AC50 is 20.2 µM.

On to `CCOCCCNC(=O)/C(C#N)=C/c1ccc([N+](=O)[O-])o1`, for which the AC50 is 12.6 µM.

Consider `COc1ccc(C(=O)/C=C/C(=O)N(CC(=O)NC2CCCCC2)CC2CCCO2)c(O)c1` (stereo unspecified), for which the concentration at half-maximal activity (AC50) was 4.8 µM.

In the case of `COc1ccc(-n2c(C)cc(C(=O)CCl)c2C)cc1`, the AC50 is 19.3 µM.

With `CC(C)(C)NC(=O)CCN(/N=C/c1ccc([N+](=O)[O-])o1)C1=NS(=O)(=O)c2ccccc21`, the AC50 is 31.9 µM.

For `Oc1c(CN2CCCCC2)cc(COCc2ccccc2)c2cccnc12`, the AC50 was 10.4 µM.

For the compound `CCCCn1c(=N)n(CCOc2ccc(C)cc2)c2ccccc21`, the AC50 was 26.5 µM.

For `O=C1/C(=N\S(=O)(=O)c2cccs2)C([n+]2ccccc2)=C([O-])c2ccccc21`, the AC50 was 3.81 µM.

Consider `CCN(Cc1ccccc1)c1ccc(/C=N/N=C(N)N)cc1`, for which the AC50 was 24.4 µM.

`O=C(Nc1ccc(F)cc1)c1nc(S(=O)(=O)Cc2ccccc2)ncc1Cl`: the concentration at half-maximal activity (AC50) is 12 µM.

`CC[n+]1c(-c2ccccc2)c2cc(N)ccc2c2ccc(N)cc21`: the AC50 is 23.3 µM.

Take `COc1ccc(C(=O)/C(C#N)=N/Nc2ccc([N+](=O)[O-])cc2)cc1`: the AC50 is 16 µM.

As for `COc1ccc2[nH]cc(C(=O)CCl)c2c1`, the AC50 was 15.1 µM.

On to `O=c1c(Cl)c(Cl)cnn1-c1ccccc1`, for which the AC50 is 5.84 µM.

Regarding `C=CCNC1=C(Cl)C(=O)c2ccccc2C1=O`, the AC50 was 15.6 µM.

With `COc1cccc(/C=N/Nc2ccc(C(=O)O)cc2)c1O`, the AC50 is 33.2 µM.

Take `CCN1/C(=C/c2cc[n+](C)cc2)C=Cc2cc(C)ccc21`: the AC50 was 16.9 µM.

Consider `COC(=O)c1ccc2c(c1O)C(=O)c1ccccc1C2=O`, for which the AC50 is 2.82 µM.

`CCCCCCCNC(=O)C1(CC2CC(c3ccc(Cl)cc3)=NO2)CCNCC1` (stereo unspecified): the concentration at half-maximal activity (AC50) was 15.2 µM.

Consider `COc1ccc(S(=O)(=O)N(C(C)=O)c2ccc(OC(C)=O)c3ccccc23)cc1[N+](=O)[O-]`, for which the AC50 was 18.1 µM.

Regarding `CCOC(=O)c1ccc(NC(=O)c2nc(S(=O)(=O)Cc3ccccc3)ncc2Cl)cc1`, the AC50 is 4.47 µM.

`CC1=C(CC(=O)c2ccccc2)C(=O)c2ccccc2C1=O`: the AC50 is 12.7 µM.

With `CN(C(=O)/C=C/c1ccc([N+](=O)[O-])s1)c1ccccc1`, the AC50 is 34.4 µM.

`CCCCn1c(=N)n(CC(=O)c2ccc(Br)s2)c2ccccc21`: the AC50 was 33.2 µM.

Consider `COc1cccc(CNCCc2c[nH]c3ccccc23)c1OCc1ccccc1`, for which the AC50 was 17.9 µM.

As for `Cc1ccc(NC(=O)Cn2ncc(Cl)c(Cl)c2=O)cc1S(=O)(=O)N1CCCCC1`, the AC50 is 15.8 µM.

As to `CN(C)c1nc(C=C(C#N)C#N)c(Cl)n1-c1ccc(F)cc1`, the AC50 was 21.2 µM.

As for `Cc1ccc([N+](=O)[O-])cc1N1C(=O)CS/C1=N\NC(=O)c1cccnc1`, the AC50 was 24.2 µM.

Regarding `CC1=NNC(=O)/C1=C\c1cn(-c2ccccc2)nc1-c1ccc(F)cc1`, the AC50 was 25.9 µM.

`COC(=O)C1=C(C)N(Cc2ccccc2)C(=NCC(C)C)N[C@H]1c1cccc(C(F)(F)F)c1`: the AC50 was 16.9 µM.

Consider `CCn1c(/C=C/Nc2ccccc2)[n+](CC)c2cc(Cl)c(Cl)cc21`, for which the AC50 is 29.6 µM.

Regarding `O=C(CCl)N1N=C(c2ccco2)CC1c1cccs1` (stereo unspecified), the AC50 is 23 µM.

For the compound `Cc1cc(NC(=O)c2ccc([N+](=O)[O-])o2)ccc1NC(=O)c1ccco1`, the AC50 was 12.5 µM.

With `Cc1ccc(NCC(=O)N/N=C\c2ccc([N+](=O)[O-])o2)cc1`, the AC50 was 25.3 µM.

In the case of `CC(=O)Nc1sc(C)c(C)c1C(=O)OCC(=O)N(CC(C)C)c1c(N)n(Cc2ccccc2)c(=O)[nH]c1=O`, the concentration at half-maximal activity (AC50) is 6.17 µM.

Turning to `O=C(Nc1ccccc1N1CCN(C(=O)c2ccccc2)CC1)c1ccc([N+](=O)[O-])o1`, the AC50 was 27.1 µM.

As to `CC(C)(C)C(=O)Cn1ncc(Cl)c(Cl)c1=O`, the AC50 was 18 µM.

For the compound `CCC(=O)OCCNc1cc(Sc2nccn2C)c2nonc2c1[N+](=O)[O-]`, the AC50 is 27.4 µM.

For `CC(C)C1CC(CCNCc2ccc(N(C)C)cc2)(c2ccccc2)CCO1` (stereo unspecified), the AC50 was 29.5 µM.

With `CCOC(=O)c1c(C)oc2c(F)c(F)c(F)c(F)c2c1=O`, the AC50 is 19.4 µM.

With `Cc1cc(C(C)(C)C)cc(C)c1Cn1c2[n+](c3ccc(C(F)(F)F)cc31)CCCCC2`, the AC50 was 24.6 µM.

The AC50 is the concentration giving half of the maximal activity seen.
